# Data reported in US20200291018A1, “TAM KINASE INHIBITORS” (SYROS PHARMACEUTICALS, INC., priority 2017, published 2020).
# pIC50: −log10 of the molar value.
# What was measured:
# [1] = target: T1, FLT3 (Homo sapiens, UniProt P36888); assay: TR-FRET kinase activity assay, FLT3; type: biochemical; conditions: ATP at Km, 60 minutes
# T1 sequence (P36888 27-993): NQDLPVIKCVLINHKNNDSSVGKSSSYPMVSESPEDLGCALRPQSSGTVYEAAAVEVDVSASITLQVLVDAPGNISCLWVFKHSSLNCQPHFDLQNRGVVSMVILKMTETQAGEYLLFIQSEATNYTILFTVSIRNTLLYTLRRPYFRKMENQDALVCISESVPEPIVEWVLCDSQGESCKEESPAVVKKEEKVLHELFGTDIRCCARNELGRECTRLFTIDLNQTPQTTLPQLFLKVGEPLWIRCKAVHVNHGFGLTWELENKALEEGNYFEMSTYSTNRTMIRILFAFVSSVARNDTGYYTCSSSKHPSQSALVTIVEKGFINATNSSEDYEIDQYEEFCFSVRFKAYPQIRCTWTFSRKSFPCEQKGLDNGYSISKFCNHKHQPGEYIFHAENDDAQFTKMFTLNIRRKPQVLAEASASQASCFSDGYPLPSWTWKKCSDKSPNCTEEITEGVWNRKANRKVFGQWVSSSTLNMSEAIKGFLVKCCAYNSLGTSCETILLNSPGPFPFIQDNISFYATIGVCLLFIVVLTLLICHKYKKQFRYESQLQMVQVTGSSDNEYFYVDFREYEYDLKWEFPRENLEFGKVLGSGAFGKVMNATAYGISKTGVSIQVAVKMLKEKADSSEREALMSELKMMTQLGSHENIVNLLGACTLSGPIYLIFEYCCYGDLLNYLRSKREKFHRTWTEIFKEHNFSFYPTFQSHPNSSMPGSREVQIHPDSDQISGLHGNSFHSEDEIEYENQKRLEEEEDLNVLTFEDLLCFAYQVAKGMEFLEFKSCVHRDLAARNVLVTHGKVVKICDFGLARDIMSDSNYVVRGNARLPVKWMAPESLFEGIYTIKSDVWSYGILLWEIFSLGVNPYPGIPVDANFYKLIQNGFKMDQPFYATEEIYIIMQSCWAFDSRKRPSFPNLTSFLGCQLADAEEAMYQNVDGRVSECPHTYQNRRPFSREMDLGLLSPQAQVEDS
# How it was run: (§1)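 IC50 came from TR-FRET signal after 30 min dark development with a Europium-labeled phospho-specific antibody. This followed a 60 min RT reaction, stopped with EDTA, started with ATP at Km per enzyme. Peptide substrate, enzyme and compound were premixed in HEPES pH 7.5 buffer with MgCl2, EGTA, Brij 35 and DTT.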
# [2] = target: T2, AXL (Homo sapiens, UniProt P30530); assay: TR-FRET kinase activity assay, AXL; type: biochemical; conditions: ATP at Km, 60 minutes
# T2 sequence (P30530 26-894): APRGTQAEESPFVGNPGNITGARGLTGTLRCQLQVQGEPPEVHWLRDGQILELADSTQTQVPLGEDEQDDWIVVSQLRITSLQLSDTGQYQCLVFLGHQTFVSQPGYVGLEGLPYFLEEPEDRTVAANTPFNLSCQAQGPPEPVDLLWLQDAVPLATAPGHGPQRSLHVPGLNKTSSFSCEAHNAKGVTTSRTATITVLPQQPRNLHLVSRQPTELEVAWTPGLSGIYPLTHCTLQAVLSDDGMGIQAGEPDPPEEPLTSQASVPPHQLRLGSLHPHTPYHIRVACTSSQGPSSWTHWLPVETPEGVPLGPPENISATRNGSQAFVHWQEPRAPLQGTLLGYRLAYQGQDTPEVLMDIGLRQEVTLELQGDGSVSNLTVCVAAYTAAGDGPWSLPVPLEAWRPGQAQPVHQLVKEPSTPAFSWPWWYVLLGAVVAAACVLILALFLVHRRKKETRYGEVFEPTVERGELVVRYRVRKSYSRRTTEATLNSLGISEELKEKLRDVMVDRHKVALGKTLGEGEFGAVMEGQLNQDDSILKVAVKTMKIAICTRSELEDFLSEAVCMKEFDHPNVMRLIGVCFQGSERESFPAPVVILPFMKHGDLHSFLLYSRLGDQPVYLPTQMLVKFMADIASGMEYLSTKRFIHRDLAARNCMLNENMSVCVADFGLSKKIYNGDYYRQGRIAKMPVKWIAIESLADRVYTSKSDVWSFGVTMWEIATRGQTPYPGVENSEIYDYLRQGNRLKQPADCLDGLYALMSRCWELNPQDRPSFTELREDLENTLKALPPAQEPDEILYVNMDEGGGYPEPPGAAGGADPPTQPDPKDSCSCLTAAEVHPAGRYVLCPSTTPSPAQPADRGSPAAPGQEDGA
# How it was run: as §1
pIC50 [1],pIC50 [2],Structure (SMILES)
5.00 to 6.00,5.00 to 6.00,CC(C)Nc1ncc2c(OC3CCOCC3)ncc(-c3cccc(CC(=O)O)c3)c2n1 [Compound 276]
5.00 to 6.00,5.00 to 6.00,O[C@H]1CC[C@H](c2cnc(OC3CCOCC3)c3cnc(N[C@H]4CCNC4)nc32)CC1 [Compound 277]
